Usually inhibition stands for the relative decrease from the control value, in per cent.

Read-outs that look alike come from different tables or passages of the source. Peptide text beside a SMILES is read from it. Where only a bound is given, the exact number is not on record here.

Experiment [1] deals with HLA-C0801 (Homo sapiens, UniProt P10321, A176T/A330V/A97T/C350S/D114A/D138N/D33Y/E201K/E299G/L171W/L218V/M285V/M309V/M331V/P208H/Q277E/Q291P/R59Q/S123Y/S140F/S297R/S48A/T329A/T363A/V319A/V328M). As to the kind of experiment: Competitive peptide binding assay, CIR-C0801. The following applies: HMy2.CIR-C0801 cells, reference Cy5-[…], class from inhibition at 5 and 15 μM, flow cytometry MFI; read-out: Binding affinity with HLA-C0801. As for the experimental part: (§1) Then, competitive peptide binding assays were performed.

Experiment [2] addresses HLA-C0602 (Homo sapiens, UniProt P10321, A176E/A330V/C350S/L171W/L180W/L218V/M285V/M309V/M331V/N104K/P208H/Q277E/Q291P/R121W/S101N/S123Y/S297R/T329A/T363A/V319A/V328M). As to the kind of experiment: Competitive peptide binding assay, CIR-C0602.
Experiment [3] deals with HLA-C0102 (Homo sapiens, UniProt P10321, A176E/A330V/A35S/A97T/C350S/D114A/D33F/L171W/L180R/L218V/M285V/M309V/M331V/P208H/Q277E/Q291P/R121W/R243W/R30K/S123C/S140Y/S297R/T329A/T363A/V272M/V319A). As to the kind of experiment: Competitive peptide binding assay, CIR-C0102. The following applies: for inhibition at 5 µM / inhibition at 15 µM: read-out: Inhibition % of Cy5-reference peptide binding. On the procedure:
as §1

The target of experiment [4] is HLA-C0302 (Homo sapiens, UniProt P10321, A176E/A330V/A97T/C25G/C350S/D114A/D33Y/E197K/L127V/L171W/L218V/M285V/M309V/M331V/P208H/Q277E/Q291P/R243W/R45H/S123Y/S297R/S48A/T118I/T187L/T329A/T363A/V319A). Kind of experiment: Competitive peptide binding assay, CIR-C0302. The following applies: HMy2.CIR-C0302 cells, reference Cy5-[…], class from inhibition at 5 and 15 μM, flow cytometry MFI; read-out: Binding affinity with HLA-C0302. As for the experimental part: as §1
(In general: A flow cytometer gives signals particle by particle.)

Experiment [5] concerns the target HLA-B1302 (Homo sapiens, UniProt P01889, A65T/A93T/A95T/D138N/D201E/D98Y/E176V/E204Q/E69M/E70A/G107R/K202T/L105A/L119W/N104T/N87E/Q94N/R106L/R155S/R169L/R180L/S101N/S121T/S35A/S48T/V127L/V36M/Y140L/Y91S). Kind of experiment: Competitive peptide binding assay, CIR-B1302. The following applies: HMy2.CIR-B1302 cells, reference Cy5-MMWYWGPSL, class from inhibition at 5 and 15 μM, flow cytometry MFI; read-out: Binding affinity with HLA-B1302. As for the experimental part: as §1

Experiment [6] addresses HLA-B1502 (Homo sapiens, UniProt P01889, A329T/A93T/A95T/C349S/D201E/D98Y/E187L/E204Q/E69M/E70A/H137Y/K202T/L119I/Q94N/R155S/R180L/S121R/S35A/S48A/T118I/V306I/V36M/Y140S/Y91S). As to the kind of experiment: Competitive peptide binding assay, CIR-B1502. As to conditions: HMy2.CIR-B1502 cells, reference Cy5-[…], class from inhibition at 5 and 15 μM, flow cytometry MFI; read-out: Binding affinity with HLA-B1502. On the procedure: as §1

Experiment [7] deals with HLA-B1301 (Homo sapiens, UniProt P01889, A65T/A93T/A95T/D138N/D201E/D98Y/E176V/E204Q/E69M/E70A/G107R/K202T/L105A/L119I/N104T/N87E/Q94N/R106L/R155S/R169L/R180L/S101N/S121R/S35A/S48T/T118I/V127L/V36M/Y140L/Y91S). As to the kind of experiment: Competitive peptide binding assay, CIR-B1301. The following applies: HMy2.CIR-B1301 cells, reference Cy5-[…], class from inhibition at 5 and 15 μM, flow cytometry MFI; read-out: Binding affinity with HLA-B1301. As for the experimental part: as §1

Experiment [8] deals with HLA-B1501 (Homo sapiens, UniProt P01889, A329T/A93T/A95T/C349S/D201E/D98Y/E187L/E204Q/E69M/E70A/K202T/N87E/Q94N/R155S/R180W/S121R/S35A/S48A/V306I/V36M/Y140S/Y91S). Kind of experiment: Competitive peptide binding assay, CIR-B1501. The following applies: HMy2.CIR-B1501 cells, reference Cy5-[…], class from inhibition at 5 and 15 μM, flow cytometry MFI; read-out: Binding affinity with HLA-B1501. On the procedure: as §1

In experiment [9] the target is HLA-C0702 (Homo sapiens, UniProt P10321). As to the kind of experiment: Competitive peptide binding assay, CIR-C0702.
In experiment [10] the target is HLA-B4601 (Homo sapiens, UniProt P01889, A329T/A93R/C349S/D201E/E100V/E187L/E204Q/E69M/E70A/I90K/K202T/N87E/R155S/R180W/S121R/S35A/S48A/V306I/V36M/Y140S). As to the kind of experiment: Competitive peptide binding assay, CIR-B4601. As to conditions: for IC50: HMy2.CIR-B4601 cells, reference Cy5-[…], class from inhibition at 5 and 15 μM, flow cytometry MFI, read-out: Binding affinity with HLA-B4601. As for the experimental part:
as §1

Experiment [11] deals with HLA-B3501 (Homo sapiens, UniProt P01889, A329T/A93T/A95T/C349S/D201E/D98Y/E176V/E187L/E204Q/E69T/I218V/K202T/L119I/Q94N/R155S/R180L/S121R/S35A/S48A/T118I/V127L/V306I/V36M/Y140S/Y91F). As to the kind of experiment: Competitive peptide binding assay, CIR-B3501. As to conditions: HMy2.CIR-B3501 cells, reference Cy5-[…], class from inhibition at 5 and 15 μM, flow cytometry MFI; read-out: Binding affinity with HLA-B3501. On the procedure:
as §1

The target of experiment [12] is HLA-B5801 (Homo sapiens, UniProt P01889, A329T/C349S/D201E/D98Y/E176V/E187L/E204Q/E69T/G107R/I218V/I90N/K202T/L105A/L119I/N104I/N87E/Q89R/Q94S/R106L/R155S/R180L/R86G/S101N/S121R/S35A/S48A/T118I/V127L/V306I/V36M/Y140S/Y91M). Kind of experiment: Competitive peptide binding assay, CIR-B5801. As to conditions: HMy2.CIR-B5801 cells, reference Cy5-[…], class from inhibition at 5 and 15 μM, flow cytometry MFI; read-out: Binding affinity with HLA-B5801. On the procedure: as §1

The mark [13] stands for this setting: HMy2.CIR-C0102 cells, reference Cy5-[…], class from inhibition at 5 and 15 μM, flow cytometry MFI, read-out: Binding affinity with HLA-C0102.

As to `CC(C)C[C@H](NC(=O)[C@H](C)NC(=O)[C@@H](NC(=O)[C@H](Cc1ccccc1)NC(=O)[C@H](Cc1c[nH]c2ccccc12)NC(=O)[C@H](CO)NC(=O)[C@H](C)NC(=O)[C@@H](NC(=O)[C@@H](N)CC(N)=O)[C@@H](C)O)[C@@H](C)O)C(=O)O` [Epitope M56, NTASWFTAL] (H-NTASWFTAL-OH; N-terminus and C-terminus assumed), the IC50 in [1] is 5 to 15 µM; in [2], over 15 µM; in experiment [3] (setting [13]) it was over 15 µM. Also, the inhibition at 5 µM in experiment [3] was found to be 17.3%. Also, the inhibition at 15 µM in experiment [3] was found to be 46.5%.
Regarding `CC(C)[C@H](NC(=O)CNC(=O)[C@H](CCCNC(=N)N)NC(=O)[C@@H](NC(=O)[C@H](Cc1ccccc1)NC(=O)[C@H](CO)NC(=O)[C@@H](N)CC(N)=O)[C@@H](C)O)C(=O)N[C@@H](Cc1ccc(O)cc1)C(=O)N[C@@H](Cc1ccc(O)cc1)C(=O)O` [Epitope M129] (H-NSFTRGVYY-OH; N-terminus and C-terminus assumed), in [4], the IC50 was over 15 µM. For the same compound, the IC50 in experiment [3] (setting [13]) was over 15 µM. For the same compound, in experiment [3], the inhibition at 5 µM was 11.3% and the inhibition at 15 µM turned out to be 34.3%.
As for `CC(C)[C@H](NC(=O)CNC(=O)[C@H](Cc1c[nH]cn1)NC(=O)[C@@H]1CCCN1C(=O)[C@H](C)NC(=O)[C@H](CO)NC(=O)[C@H](CCC(N)=O)NC(=O)[C@@H]1CCCN1C(=O)[C@@H](N)Cc1ccccc1)C(=O)O` [Epitope Y281] (H-FPQSAPHGV-OH; N-terminus and C-terminus assumed), the IC50 is over 15 µM in [5], over 15 µM in experiment [6], over 15 µM in experiment [7] and 5 to 15 µM in experiment [8].
Regarding `CC(C)C[C@H](NC(=O)[C@H](CC(=O)O)NC(=O)[C@H](CCC(N)=O)NC(=O)[C@@H](NC(=O)[C@@H](N)CO)[C@@H](C)O)C(=O)N[C@@H](Cc1ccccc1)C(=O)N[C@@H](CC(C)C)C(=O)N1CCC[C@H]1C(=O)N[C@@H](Cc1ccccc1)C(=O)O` [Epitope Y249] (H-STQDLFLPF-OH; N-terminus and C-terminus assumed), the IC50 in [5] is over 15 µM; in experiment [7], over 15 µM; in [8], 5 to 15 µM.
Regarding `CC[C@H](C)[C@H](NC(=O)[C@@H]1CCCN1C(=O)[C@@H](NC(=O)[C@H](Cc1c[nH]cn1)NC(=O)[C@H](CCCCN)NC(=O)[C@H](CO)NC(=O)[C@@H](N)Cc1ccc(O)cc1)[C@@H](C)O)C(=O)N[C@@H](CC(N)=O)C(=O)N[C@@H](CC(C)C)C(=O)O` [Epitope M127] (H-YSKHTPINL-OH; N-terminus and C-terminus assumed), the IC50 in [2] and in experiment [9] was over 15 µM throughout.
For the compound `CC[C@H](C)[C@H](NC(=O)[C@H](CC(C)C)NC(=O)[C@@H](N)CCC(=O)O)C(=O)N[C@@H](CCCNC(=N)N)C(=O)N[C@@H](CCC(N)=O)C(=O)NCC(=O)N[C@H](C(=O)N[C@@H](CC(=O)O)C(=O)N[C@@H](Cc1ccc(O)cc1)C(=O)O)[C@@H](C)O` [Epitope Y162] (H-ELIRQGTDY-OH; N-terminus and C-terminus assumed), the IC50 is under 5 µM in experiment [10]; over 15 µM in experiment [5]; 5 to 15 µM in experiment [6]; over 15 µM in [11]; 5 to 15 µM in [12]; over 15 µM in experiment [8].
On to `CSCC[C@H](NC(=O)[C@H](CO)NC(=O)[C@H](CCCNC(=N)N)NC(=O)[C@@H](NC(=O)[C@H](CCCNC(=N)N)NC(=O)[C@H](C)NC(=O)[C@H](Cc1ccccc1)NC(=O)[C@H](CC(C)C)NC(=O)[C@@H](N)CCCNC(=N)N)[C@@H](C)O)C(=O)O` [Epitope M41] (H-RLFARTRSM-OH; N-terminus and C-terminus assumed), for which the IC50 in experiment [1] is 5 to 15 µM. The IC50 in [9] was over 15 µM. Moreover, in experiment [3], the IC50 is over 15 µM, the inhibition at 5 µM came out at 9.56% and the inhibition at 15 µM stood at 35.7%.
Regarding `C[C@H](NC(=O)[C@H](CO)NC(=O)[C@H](CO)NC(=O)[C@@H](N)Cc1ccc(O)cc1)C(=O)N[C@@H](CC(N)=O)C(=O)N[C@@H](CC(N)=O)C(=O)N[C@@H](CS)C(=O)N[C@H](C(=O)N[C@@H](Cc1ccccc1)C(=O)O)[C@@H](C)O` [Epitope Y247] (H-YSSANNCTF-OH; N-terminus and C-terminus assumed), the IC50 in experiment [10] is 5 to 15 µM; in experiment [5], 5 to 15 µM; in experiment [6], over 15 µM; in experiment [7], over 15 µM; in experiment [11] it was over 15 µM; in [12], under 5 µM. Also, the IC50 in experiment [8] was over 15 µM. Also, in experiment [10] (read-out: Inhibition % of Cy5-reference peptide binding, CIR-B4601, 5μM peptide), the inhibition at 5 µM was 44.6%. Moreover, in experiment [10] (read-out: Inhibition % of Cy5-reference peptide binding, CIR-B4601, 15μM peptide), the inhibition at 15 µM was 86.4%.
As for `CC[C@H](C)[C@H](NC(=O)[C@H](Cc1ccc(O)cc1)NC(=O)[C@H](CC(C)C)NC(=O)[C@H](Cc1ccccc1)NC(=O)[C@H](CCCNC(=N)N)NC(=O)[C@H](CC(N)=O)NC(=O)[C@H](CCCNC(=N)N)NC(=O)[C@H](CC(N)=O)NC(=O)[C@H](C)NC(=O)[C@@H](N)Cc1ccc(O)cc1)C(=O)O` [Epitope M73] (H-YANRNRFLYI-OH; N-terminus and C-terminus assumed), the IC50 is 5 to 15 µM in [4], under 5 µM in [2] and over 15 µM in experiment [3] (setting [13]). In addition, the inhibition at 5 µM in experiment [3] came out at 23.5%. Also, in experiment [3], the inhibition at 15 µM came out at 47.8%.

Values taken from publication PMC12133982, “Predominant T-cell epitopes of SARS-CoV-2 restricted by multiple prevalent HLA-B and HLA-C allotypes in Northeast Asia” (Frontiers in Immunology, 2025).
